Test results reported in patent publication US20230139171A1 (SITA Information Networking Computing UK Limited, priority 2019, published 2023).

What was measured:
human TLR8 = target: T1, human TLR8 (Homo sapiens, UniProt Q9NR97); assay: TLR8 inhibition reporter assay (HEK-Blue cells, SEAP reporter, R848 stimulation); format: cell-based; conditions: HEK-Blue cells overexpressing human TLR8, SEAP reporter, R848 15.9 μM; read-out: TLR8 IC50
T1 construct: host or cells: HEK-Blue cells
T1 sequence (Q9NR97 27-1041): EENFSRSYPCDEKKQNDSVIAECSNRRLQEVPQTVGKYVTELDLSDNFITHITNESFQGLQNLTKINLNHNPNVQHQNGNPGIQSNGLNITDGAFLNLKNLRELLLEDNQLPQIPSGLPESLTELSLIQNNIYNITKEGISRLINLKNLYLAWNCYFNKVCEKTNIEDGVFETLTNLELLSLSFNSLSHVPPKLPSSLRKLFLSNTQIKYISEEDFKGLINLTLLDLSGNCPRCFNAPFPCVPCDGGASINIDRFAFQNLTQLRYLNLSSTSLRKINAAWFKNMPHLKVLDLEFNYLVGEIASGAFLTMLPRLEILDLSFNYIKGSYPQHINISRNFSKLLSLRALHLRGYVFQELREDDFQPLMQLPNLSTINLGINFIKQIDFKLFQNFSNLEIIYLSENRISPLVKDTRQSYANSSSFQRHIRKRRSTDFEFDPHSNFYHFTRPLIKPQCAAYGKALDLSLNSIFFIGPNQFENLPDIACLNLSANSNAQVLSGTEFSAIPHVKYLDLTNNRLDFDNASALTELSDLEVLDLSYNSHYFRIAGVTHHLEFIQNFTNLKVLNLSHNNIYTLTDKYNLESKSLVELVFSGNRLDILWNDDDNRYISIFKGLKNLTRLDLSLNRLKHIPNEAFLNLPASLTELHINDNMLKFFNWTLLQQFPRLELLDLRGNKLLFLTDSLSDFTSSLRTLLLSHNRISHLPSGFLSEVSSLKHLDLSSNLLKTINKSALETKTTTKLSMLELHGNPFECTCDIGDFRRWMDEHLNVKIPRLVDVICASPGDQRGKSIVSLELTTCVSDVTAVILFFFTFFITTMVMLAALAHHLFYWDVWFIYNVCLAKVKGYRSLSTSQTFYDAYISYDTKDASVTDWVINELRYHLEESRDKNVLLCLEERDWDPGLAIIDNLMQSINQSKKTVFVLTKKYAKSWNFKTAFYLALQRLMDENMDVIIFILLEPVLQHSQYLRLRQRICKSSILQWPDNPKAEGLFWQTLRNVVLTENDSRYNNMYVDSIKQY
How it was run: (§1)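 Agonists used: gardiquimod 7.5 μM (TLR7), R848 15.9 μM (TLR8), ODN2006 5 nM (TLR9), added after 30 min room-temperature compound pre-treatment (0.05 nM–50 μM) of receptor-overexpressing HEK-Blue cells. SEAP reporter (NF-κB/AP-1 driven) read after 22 h at 37 °C; inhibition scaled between agonist+DMSO and reference-inhibitor wells.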

human TLR7 = target: T2, human TLR7 (Homo sapiens, UniProt Q9NYK1); assay: TLR7 inhibition reporter assay (HEK-Blue cells, SEAP reporter, gardiquimod stimulation); format: cell-based; conditions: HEK-Blue cells overexpressing human TLR7, SEAP reporter, gardiquimod 7.5 μM; read-out: TLR7 IC50
T2 construct: host or cells: HEK-Blue cells
T2 sequence (Q9NYK1 27-1049): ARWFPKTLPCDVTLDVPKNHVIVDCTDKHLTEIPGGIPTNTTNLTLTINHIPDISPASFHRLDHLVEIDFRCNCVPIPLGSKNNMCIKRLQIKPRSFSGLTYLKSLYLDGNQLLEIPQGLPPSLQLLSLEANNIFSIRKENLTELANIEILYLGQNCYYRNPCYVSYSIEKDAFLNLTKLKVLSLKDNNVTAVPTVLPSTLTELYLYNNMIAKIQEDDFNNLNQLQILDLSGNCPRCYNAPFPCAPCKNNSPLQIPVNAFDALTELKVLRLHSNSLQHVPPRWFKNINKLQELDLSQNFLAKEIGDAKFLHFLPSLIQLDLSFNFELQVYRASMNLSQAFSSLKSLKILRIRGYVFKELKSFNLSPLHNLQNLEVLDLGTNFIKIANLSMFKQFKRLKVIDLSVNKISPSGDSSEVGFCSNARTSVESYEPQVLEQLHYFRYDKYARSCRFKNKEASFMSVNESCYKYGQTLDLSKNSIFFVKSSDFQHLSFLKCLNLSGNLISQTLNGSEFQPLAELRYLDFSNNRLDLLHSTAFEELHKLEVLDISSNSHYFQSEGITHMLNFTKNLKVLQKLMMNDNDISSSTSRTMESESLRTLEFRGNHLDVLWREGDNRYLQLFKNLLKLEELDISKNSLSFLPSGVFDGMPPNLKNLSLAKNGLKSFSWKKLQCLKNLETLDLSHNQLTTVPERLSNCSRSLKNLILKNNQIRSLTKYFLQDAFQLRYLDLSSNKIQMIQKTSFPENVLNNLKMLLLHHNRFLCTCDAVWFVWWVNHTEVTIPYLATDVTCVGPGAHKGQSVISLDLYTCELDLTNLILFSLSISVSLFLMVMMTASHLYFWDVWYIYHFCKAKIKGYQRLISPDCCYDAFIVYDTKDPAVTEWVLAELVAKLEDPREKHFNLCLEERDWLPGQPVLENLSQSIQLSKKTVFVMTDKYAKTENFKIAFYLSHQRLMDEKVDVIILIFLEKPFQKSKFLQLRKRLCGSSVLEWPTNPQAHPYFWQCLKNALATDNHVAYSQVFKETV
How it was run: as §1

IC50 (human TLR8): 1.37 nM
IC50 (human TLR7): 0.55 nM
SMILES: COc1cc(-c2[nH]c3sc(C4CCC(NC5COC5)CC4)nc3c2C(C)C)cn2ncnc12 (single isomer, unassigned) [Example 65, N-(4-(6-isopropyl-5-(8-methoxy-[1,2,4]triazolo[1,5-a]pyridin-6-yl)-4H-pyrrolo[3,2-d]thiazol-2-yl)cyclohexyl)oxetan-3-amine]
